# Reference: US20250306034A1, “Detection of Liver Disease” (Owlstone Medical Limited, priority 2022, published 2025)
# Key:
# AKR1B10 = AKR1B10 (Homo sapiens, UniProt O60218); assay: Bioproduct production in A549 WT and AKR1B10 KO cells, headspace GC-MS; settings: for substrate of AKR1B10 (converted to 1-nonanol / trans-2-hexenol by this enzyme): WT versus AKR1B10 KO A549 cells
# Text: We have tested conversion of these substrates to the respective bioproduct 1-nonanol, trans-2-hexenol, hexenol, benzyl alcohol, and nerol, in a cancer cell line overexpressing AKR1B10.
# A549 lung cancer cells were targeted with a CRISP/Cas system to ablate the protein expression of AKR1B10. Specific sgRNA for the AKR1B10 gene were co-transfected in cells with SpCas9 using ribonucleoproteins (RNPs). Clonal cells were generated by using limiting dilution. […] Resulting protein extract for WT and AKR1B10 KO cells were analysed using the Jess system and samples were probed with an AKR1B10 specific antibody, and with an antibody against α-Tubulin as independent reporter.
# 5×10^4 cells/mL of WT or 3 AKR1B10 KO clone cells were seeded in 24-well plates using cell culture media and let adhere and proliferate for 48 hours to confluence. Then, they were treated with 30 μM nonanal or 10 µM trans-2-hexenal. […] Headspace analysis was performed by using Centri, coupled with a GC-MS Orbi-trap system. Peak identification of nonanal, 1-nonanol, trans-2-hexenal, and trans-2-hexenol, was performed by comparing the peak against reference standards.
# [1] = Blood levels of bioproducts in NASH rat model (CDHFD vs normal diet); settings: for time after administration at which blood concentration increases / blood levels, CDHFD compared to ND rats: after oral 2-butanol 440 mg/Kg; for blood levels, CDHFD compared to ND rats: at 8 and 12 hours (480, 720 minutes)
# Procedure: Blood samples were analysed using gas chromatography mass spectrometry (GC/-MS) or HPLC to measure metabolitic bioproducts benzoic acid, 3-hydroxy-2-butanone, 2-3-butanediol, and 2,3-pentanediol.
# A total of 18 Wistar Han rats were acclimatized for 6 days. After that time, 9 rats remained on a normal diet, while 9 rats were switched to a choline deficient high fat diet (CDHFD) (L-Amino Acid Diet With 45 kcal % Fat With 0.1% Methionine, No Added Choline and 1% Cholesterol) (Research Diet, catalog #A16092003, https://researchdiets.com/en/formulas/a16092003). Rats had ad libitum access to food and water at all times unless differently specified. Body weight was measured every week.
# Following 10 weeks of diet treatment, rats were randomised into groups each group composed of 3 healthy and 3 NASH rats for dosing with the different compounds.
# Each group received an emulsion containing the compounds reported in table 1 at the indicated amount.
# Each compound preparation was administered as an emulsion containing 15% Tween80 diluted in water to deliver the target amount in 5 mL/kg body weight. The emulsion was administered by oral gavage after the rats were fasted for 16 hours.
# Blood samples were collected pre (0 min) and post compound administration at the following timepoints: 5 min, 15 min, 30 min, 1 h, 1.5 h, 2 h, 4 h, 8 h, 12 h, and 24 h.
# At each time point, ˜200 μL blood samples were collected into EDTA-K2 tubes and placed on wet ice until centrifugation. Plasma was generated, from the blood samples, by centrifugation at approximately 4° C., 3,200 g for 5 min.
# A total of 100 μL of plasma was collected respectively and transferred into Eppendorf tubes. Of these, 95 μL of plasma were spiked with 400 μL of internal standard in acetonitrile, vortexed for 30s and centrifuged for 15 min at 3220 g. A total of 100 μL of supernatant was used for compounds quantification, unless differently specified.
# Response for each compound was normalized by the response of the internal standard, and absolute quantification was performed against a calibration curve.
# [2] = tested on: healthy human hepatocytes; assay: Metabolism of VOCs by healthy human hepatocytes (organ-on-a-chip)
# Procedure: Organ-on-a chip samples were used.
# Organ-on-a chip is a three-dimensional hepatocytes culturing system developed by a company called CN-Bio Ltd. Aliquots of media spiked with VOCs and collected at different time points are analysed using CENTRI-GC-MS a system for VOCs headspace detection and quantification. The experiment contained samples from healthy hepatocytes in the culture medium exposed to 2-butanol, nonanal at one of the concentrations: 50, 10, 2 and 0 ng/μL, and the control which is the culture medium without hepatocytes containing 2-butanol, and nonanal of the same concentration.
# System suitability test (SST) and […] standards check (0, 2, 10 and 50 ng/μL), were run in duplicate at the beginning, in the middle and at the end of the sequence to mitigate against the risk of an instrumental deviation.
# Empty tubes were also run at the beginning, in the middle and at the end of the sequence to mitigate against the risk of a carryover 0.5 μL Internal standards (1000 ng/μL) were spiked into each sample prior to analysis.
# [3] = tested on: healthy and NASH hepatocytes; settings: for level of probe in presence of NASH and healthy hepatocytes compared with absence of hepatocytes: 50 ng/μL in culture medium, aliquots 0.5 to 24 hours
# Text: Organ-on-a-chip containing healthy human hepatocytes and human hepatocytes treated to generate a model of a healthy or NASH liver disease were used in the following experiments. The Organ-on-a-chip containing healthy human hepatocytes are similar to the Organ-on-a-chip described above, but the experiment also included a model of NASH hepatocytes. The latter are obtained by treating healthy hepatocytes with Kupfer cells and hepatocytes stellate cells.
# Primary human hepatocytes (PHHs), Kupffers cells (KCs), and hepatic stellate cells (HSCs) were seeded onto CN-Bio's PhysioMimix LC12 MPS culture plates at 6×10^5 cells for PHHs and 6×10^4 cells for HKCs and HSCs (necessary to induce the NASH phenotype) per well in CN-Bio's seeding medium. Throughout the experiment the cells were maintained at a medium flow rate of 1 μl/s. At days 4, 6, 8, 11, and 12 post seeding, medium aliquots were taken to measure LDH and albumin to assess cell health. At day 13 (24 hours post VOCs treatment), final medium collection for analysis was performed. Scaffolds were fixed in 4% formaldehyde for Oil Red O staining to assess lipid accumulation.
# Primary hepatocytes were treated with 2-butanol and nonanal diluted in the hepatocytes culture medium at a concentration of 50 ng/μL. Aliquots of the culture medium were collected at 0.5, 1, 2, 4, 6, and 24 hours. The remaining medium-compound mix that was not added to the cells was considered as 0 timepoint reference. Headspace analysis was performed by using Centri, an automated system used to collect VOCs in the headspace, coupled with a GC-MS Orbi-trap system, a high-resolution mass spectrometer for detection and quantification of VOCs. Peak identification of 2-butanol, 2-butanone, nonanal, and 1-nonanol was performed by comparing the peak against a reference standard. A p-value<0.05 was considered as statistically significant.
# [4] = Nonanal and 2-butanol washout in breath of volunteers; settings: three volunteers; swallowed emulsion with 500 mg of Nonanal and 100 mg of 2-butanol; GC-MS
# Procedure: An analysis of nonanal and 2-butanol washout of breath samples collected from three volunteers investigated before and after the intake of 500 mg of Nonanal and 100 mg of 2-butanol was performed. Three breath collections have been performed per each volunteer.
# Three Volunteers participated in this trial for 3 times. They swallowed an emulsion containing 500 mg of Nonanal and 100 mg of 2-butanol and their breath was collected at 8 different time points before and after the emulsion intake using the ReCIVA, a face mask containing tubes for breath collection, and storage of exhaled VOCs.
# Appearance on breath and conversion of the probes to their bioproducts was measured using gas-chromatography mass-spectrometry (GC-MS).
# [5] = after oral 2-pentanone 160 mg/Kg
# [6] = hepatocytes treated with 2-butanol and nonanal at 50 ng/μL
# Sequence of AKR1B10 (O60218 whole entry): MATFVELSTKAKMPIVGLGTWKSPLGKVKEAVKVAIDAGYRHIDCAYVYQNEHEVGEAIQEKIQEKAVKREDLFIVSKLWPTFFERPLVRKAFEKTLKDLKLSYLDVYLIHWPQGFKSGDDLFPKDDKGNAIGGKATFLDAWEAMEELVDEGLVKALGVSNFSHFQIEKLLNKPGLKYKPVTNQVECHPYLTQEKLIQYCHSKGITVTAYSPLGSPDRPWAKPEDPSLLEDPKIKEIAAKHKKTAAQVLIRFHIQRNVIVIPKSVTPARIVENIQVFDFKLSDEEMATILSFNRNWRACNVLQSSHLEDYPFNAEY
structure (smiles),measurement,setting,value
CCCCCCCCCO [1-nonanol],"production of 1-nonanol, levels in WT compared to AKR1B10 KO cells","AKR1B10; human, 30 μM",3 times higher
"CC(O)C(C)O (centres unmarked) [2,3-butanediol]",time after administration at which blood concentration increases,[1],240 min
same,"blood levels, CDHFD compared to ND rats",[1],higher levels in CDHFD compared to ND rats
"CCC(O)C(C)O (centres unmarked) [2,3-pentanediol]","blood levels, CDHFD rats compared to ND rats",[1]; [5],higher in CDHFD rats compared to ND rats after 4 hours
same,time after administration after which blood levels increased,[1]; [5],1 h
CCC(C)O (centres unmarked) [2-butanol],level of probe over 24 hours in media alone and media with hepatocytes,"[2]; 50, 10, 2 and 0 ng/μL, healthy hepatocytes, headspace GC-MS",a decrease both in media alone and media with hepatocytes
same,level of probe in presence of NASH and healthy hepatocytes compared with absence of hepatocytes,[3],more marked reduction at 24 h
same,detection in breath samples after emulsion intake,[4],detected
CCC(C)=O [2-butanone],level of bioproduct over time in media with hepatocytes,"[2]; hepatocytes exposed to nonanal and 2-butanol, 50, 10, 2 and 0 ng/μL",a spike and subsequent decrease
same,"area of the bioproduct peak, NASH versus healthy hepatocytes",[3]; [6],the area under the peak for healthy is larger than for NASH
same,"production of bioproduct, NASH versus healthy hepatocytes",[3]; [6],Healthy hepatocytes showed higher production of 2-butanone at 6 hours
CC(=O)C(C)O (centres unmarked) [3-hydroxy-2-butanone],time after administration at which blood concentration increases,[1],240 min
same,"blood levels, CDHFD compared to ND rats",[1],higher levels in CDHFD compared to ND rats
O=Cc1ccccc1 [benzylaldehyde],conversion of the substrate to the respective bioproduct,"AKR1B10; cancer cell line overexpressing AKR1B10, substrates added to the culture media",conversion to the bioproducts in a timeframe of 6 hours
CC(C)=CCCC(C)=CC=O [citral],conversion of the substrate to the respective bioproduct,"AKR1B10; human, 6 h",conversion to the bioproducts in a timeframe of 6 hours
CCCCCC=O [hexanal],conversion of the substrate to the respective bioproduct,"AKR1B10; human, 6 h",conversion to the bioproducts in a timeframe of 6 hours
CCCCCCCCC=O [nonanal],level of probe in presence of NASH and healthy hepatocytes compared with absence of hepatocytes,[3],more marked reduction
same,bioproduct generation after ablation of AKR1B10 or treatment of the cells with AKRs inhibitors,AKR1B10,reduced or absent bioproduct generation
same,substrate of AKR1B10 (converted to 1-nonanol / trans-2-hexenol by this enzyme),AKR1B10,substrates for AKR1B10
same,"level of nonanal in medium added to WT or AKR1B10 KO cell lines, versus medium without cells","AKR1B10; human, 3 h, 30 μM",increased reduction over 3 hours
same,conversion of the substrate to the respective bioproduct,"AKR1B10; human, 6 h",conversion to the bioproducts in a timeframe of 6 hours
CCC/C=C/C=O [trans-2-hexenal],bioproduct generation after ablation of AKR1B10 or treatment of the cells with AKRs inhibitors,AKR1B10,reduced or absent bioproduct generation
same,substrate of AKR1B10 (converted to 1-nonanol / trans-2-hexenol by this enzyme),AKR1B10,substrates for AKR1B10
same,"production of bioproduct of trans-2-hexenal, levels in WT compared to AKR1B10 KO cells","AKR1B10; human, 10 μM",10 times higher
same,"level of trans-2-hexenal in medium added to WT or AKR1B10 KO cell lines, versus medium without cells","AKR1B10; human, 3 h, 10 μM",increased reduction over 3 hours
same,conversion of the substrate to the respective bioproduct,"AKR1B10; human, 6 h",conversion to the bioproducts in a timeframe of 6 hours
